The values below come from patent publication US7348427B2, “Antipathogenic benzamide compounds” (Genesoft Pharmaceuticals, Inc., priority 2001, dated 2008).

The subject of assay [1] is Bacillus cereus (ATCC 11778). Nature of the assay: MIC, NCCLS broth microdilution assay. In kind it is cell-based. Conditions: A = B. cereus ATCC 11778. The text has this: (§1) In vitro biological activity data were collected for a variety of microorganisms, including Bacillus cereus (ATCC 11778), Staphylococcus aureus (ATCC 27660, a methicillin resistant strain (MRSA); ATCC 13709, a methicillin sensitive strain (MSSA)); Streptococcus pneumoniae (ATCC 51422, a penicillin resistant strain (PRSP)), Enterococcus faecium (ATCC 51559, a vancomycin resistant strain (VRE)), and Staphylococcus epidermidis (ATCC 12228). Additionally, antifungal activity data were collected for Candida albicans (ATCC 38247).
(§2) Compounds according to this invention were screened for their in vitro activities against selected species of bacteria and fungi. The minimal inhibition concentration (MIC) of these compounds was determined using the National Committee for Clinical Laboratory Standards (NCCLS) broth microdilution assay in microtiter plates, as set forth in: (1) the guidelines of the National. Committee for Clinical Laboratory Standards (NCCLS) Document M7-A4 (NCCLS, 1997); (2) the guidelines of the National Committee for Clinical Laboratory Standards (NCCLS) Document M11-A4 (NCCLS, 1997); and (3) the guidelines and reference method of the National Committee for Clinical Laboratory Standards (NCCLS) Document M27-T (NCCLS, 1995). For antifungal assays, the method recommended in Murray, P R., 1995 Manual of Clinical Microbiology (ASM Press, Washington, D.C.), was employed.
A general note: Broth dilution looks for growth in wells or tubes with falling amounts of substance.

In assay [2] the test system is Staphylococcus aureus (ATCC 13709, a methicillin sensitive strain (MSSA)). Nature of the assay: MIC, NCCLS broth microdilution assay. Particulars: E = S. aureus ATCC 13709. Format: cell-based.
Source text: as §1, §2

Assay [3] relates to Staphylococcus aureus (ATCC 27660, a methicillin resistant strain (MRSA)). The assay can be described thus: MIC, NCCLS broth microdilution assay. In kind it is cell-based. Conditions: F = S. aureus ATCC 27660.
Source text: as §1, §2

Assay [4] deals with Candida albicans (ATCC 38247). The assay can be described thus: Antifungal MIC assay. Format: cell-based. Conditions: B = C. albicans ATCC 38247.
Source text: as §1, §2

The next assay has as its system E. faecalis ATCC 29212. Nature of the assay: MIC, NCCLS broth microdilution assay. In kind it is cell-based, Enterococcus faecalis. Conditions: C = E. faecalis ATCC 29212. The procedure: as §2
In another assay the test system is S. pneumoniae ATCC 49619. The assay can be described thus: MIC, NCCLS broth microdilution assay. In kind it is cell-based, Streptococcus pneumoniae. Conditions: H = S. pneumoniae ATCC 49619. As to the method:
as §2

Where only a bound is given, the exact number is not on record here.

Regarding `C[C@@H]1CN(CCNC(=O)c2cc(NC(=O)c3cc(NC(=O)c4ccc(F)cc4F)cn3C)cn2C)C[C@H](C)O1` [Compound B-12], the “Minimum Inhibitory Concentration (MIC)” value in assay [1] was “+++ (+++ = MIC ≦ 4)”; in assay [2], “++ (++ = 4 < MIC < 12)”; in assay [3], “+++ (+++ = MIC ≦ 4)”; in assay [4] it was over 32 mg/L; in the assay with E. faecalis ATCC 29212, “+++ (+++ = MIC ≦ 4)”; in the assay on S. pneumoniae ATCC 49619, “+++ (+++ = MIC ≦ 4)”.
As to `CCN(CC)CCNC(=O)c1cc(NC(=O)c2cc(NC(=O)c3ccc(F)cc3F)cn2C)cn1C` [Compound B-13], the “Minimum Inhibitory Concentration (MIC)” value was “+ (+ = 12 ≦ MIC ≦ 32)” in assay [1]; “++ (++ = 4 < MIC < 12)” in assay [2]; “+ (+ = 12 ≦ MIC ≦ 32)” in assay [3]; over 32 mg/L in assay [4]; “++ (++ = 4 < MIC < 12)” with E. faecalis ATCC 29212; “+++ (+++ = MIC ≦ 4)” with S. pneumoniae ATCC 49619.
As for `Cn1cc(NC(=O)c2cc(NC(=O)c3ccc(F)cc3F)cn2C)cc1C(=O)NCCN1CCCCC1` [Compound B-14], the “Minimum Inhibitory Concentration (MIC)” value is “++ (++ = 4 < MIC < 12)” in assay [1]; “+++ (+++ = MIC ≦ 4)” in assay [2]; “+++ (+++ = MIC ≦ 4)” in assay [3]; over 32 mg/L in assay [4]; “+++ (+++ = MIC ≦ 4)” with E. faecalis ATCC 29212; “+++ (+++ = MIC ≦ 4)” in the assay on S. pneumoniae ATCC 49619.
As for `CN(C)CC(C)(C)CNC(=O)c1cc(NC(=O)c2cc(NC(=O)c3ccc(F)cc3F)cn2C)cn1C` [Compound B-15], the “Minimum Inhibitory Concentration (MIC)” value is over 32 mg/L in assay [1]; over 32 mg/L in assay [2]; over 32 mg/L in assay [3]; over 32 mg/L in assay [4]; over 32 mg/L with E. faecalis ATCC 29212; “+ (+ = 12 ≦ MIC ≦ 32)” in the assay on S. pneumoniae ATCC 49619.
In the case of `Cn1cc(NC(=O)c2cc(NC(=O)c3ccc(F)cc3F)cn2C)cc1C(=O)NCCN1CCCC1` [Compound B-16], the “Minimum Inhibitory Concentration (MIC)” value in assay [1] was “++ (++ = 4 < MIC < 12)”; in assay [2], “++ (++ = 4 < MIC < 12)”; in assay [3], “++ (++ = 4 < MIC < 12)”; in assay [4], over 32 mg/L; in the assay on E. faecalis ATCC 29212, “+++ (+++ = MIC ≦ 4)”; with S. pneumoniae ATCC 49619 it was “+++ (+++ = MIC ≦ 4)”.
Take `Cn1cc(NC(=O)c2cc(NC(=O)c3cc(NC(=O)c4ccc(F)cc4F)cn3C)cn2C)cc1C(=O)NCCc1cccc[n+]1C` [Compound B-17]: the “Minimum Inhibitory Concentration (MIC)” value in assay [1] was “+++ (+++ = MIC ≦ 4)”; in assay [2], “++ (++ = 4 < MIC < 12)”; in assay [3], “++ (++ = 4 < MIC < 12)”; in assay [4] it was over 32 mg/L; in the assay on E. faecalis ATCC 29212 it was “+ (+ = 12 ≦ MIC ≦ 32)”; with S. pneumoniae ATCC 49619, “++ (++ = 4 < MIC < 12)”.
With `Cn1cc(NC(=O)c2cc(NC(=O)c3cc(NC(=O)c4ccc(F)cc4F)cn3C)cn2C)cc1C(=O)NCCN1CCC(O)CC1` [Compound B-19], the “Minimum Inhibitory Concentration (MIC)” value in assay [1] is “+++ (+++ = MIC ≦ 4)”; in assay [2], “+++ (+++ = MIC ≦ 4)”; in assay [3], “+++ (+++ = MIC ≦ 4)”; in assay [4], over 32 mg/L; in the assay with E. faecalis ATCC 29212, “+++ (+++ = MIC ≦ 4)”; in the assay with S. pneumoniae ATCC 49619, “+++ (+++ = MIC ≦ 4)”.
`C[C@@H]1CCC[C@H](C)N1CCNC(=O)c1cc(NC(=O)c2cc(NC(=O)c3cc(NC(=O)c4ccc(F)cc4F)cn3C)cn2C)cn1C` [Compound B-20]: the “Minimum Inhibitory Concentration (MIC)” value in assay [1] was “+++ (+++ = MIC ≦ 4)”; in assay [2] it was “+++ (+++ = MIC ≦ 4)”; in assay [3], “++ (++ = 4 < MIC < 12)”; in assay [4] it was over 32 mg/L; in the assay with E. faecalis ATCC 29212, “+ (+ = 12 ≦ MIC ≦ 32)”; with S. pneumoniae ATCC 49619, “+++ (+++ = MIC ≦ 4)”.
Turning to `Cn1cc(NC(=O)c2cc(NC(=O)c3cc(NC(=O)c4ccc(F)cc4F)cn3C)cn2C)cc1C(=O)NCCN` [Compound B-21], the “Minimum Inhibitory Concentration (MIC)” value in assay [1] is reported as “+ (+ = 12 ≦ MIC ≦ 32)”; in assay [2], “+ (+ = 12 ≦ MIC ≦ 32)”; in assay [3], “++ (++ = 4 < MIC < 12)”; in assay [4], “+ (+ = 12 ≦ MIC ≦ 32)”; in the assay with E. faecalis ATCC 29212 it was “++ (++ = 4 < MIC < 12)”; in the assay on S. pneumoniae ATCC 49619 it was “++ (++ = 4 < MIC < 12)”.
Turning to `Cn1cc(NC(=O)c2cc(NC(=O)c3cc(NC(=O)c4ccc(F)cc4F)cn3C)cn2C)cc1C(=O)NCCNC(=N)N` [Compound B-23], the “Minimum Inhibitory Concentration (MIC)” value in assay [1] is reported as “+++ (+++ = MIC ≦ 4)”; in assay [2], “+++ (+++ = MIC ≦ 4)”; in assay [3] it was “+++ (+++ = MIC ≦ 4)”; in assay [4], “++ (++ = 4 < MIC < 12)”; in the assay on E. faecalis ATCC 29212, “+++ (+++ = MIC ≦ 4)”; in the assay with S. pneumoniae ATCC 49619 it was “+++ (+++ = MIC ≦ 4)”.
For `Cn1cc(NC(=O)c2cc(NC(=O)c3cc(NC(=O)c4ccc(F)cc4F)cn3C)cn2C)cc1C(=O)NCCN(CCO)CCO` [Compound B-25], the “Minimum Inhibitory Concentration (MIC)” value in assay [1] is “+ (+ = 12 ≦ MIC ≦ 32)”; in assay [2], “+ (+ = 12 ≦ MIC ≦ 32)”; in assay [3] it was “+ (+ = 12 ≦ MIC ≦ 32)”; in assay [4], over 32 mg/L; with E. faecalis ATCC 29212 it was “+ (+ = 12 ≦ MIC ≦ 32)”; in the assay on S. pneumoniae ATCC 49619, “+++ (+++ = MIC ≦ 4)”.
Consider `Cn1cc(NC(=O)c2cc(NC(=O)c3cc(NC(=O)c4ccc(F)cc4F)cn3C)cn2C)cc1C(=O)NCCN1CCNCC1` [Compound B-28], for which the “Minimum Inhibitory Concentration (MIC)” value was “+ (+ = 12 ≦ MIC ≦ 32)” in assay [1]; “+ (+ = 12 ≦ MIC ≦ 32)” in assay [2]; “+ (+ = 12 ≦ MIC ≦ 32)” in assay [3]; over 32 mg/L in assay [4]; “+ (+ = 12 ≦ MIC ≦ 32)” in the assay with E. faecalis ATCC 29212; “+++ (+++ = MIC ≦ 4)” in the assay on S. pneumoniae ATCC 49619.
Take `Cn1cc(NC(=O)c2cc(NC(=O)c3cc(NC(=O)c4ccc(F)cc4F)cn3C)cn2C)cc1C(=O)NCCN1CCC(F)CC1` [Compound B-29]: the “Minimum Inhibitory Concentration (MIC)” value is “+++ (+++ = MIC ≦ 4)” in assay [1]; “+++ (+++ = MIC ≦ 4)” in assay [2]; “+++ (+++ = MIC ≦ 4)” in assay [3]; “+ (+ = 12 ≦ MIC ≦ 32)” in assay [4]; “+++ (+++ = MIC ≦ 4)” in the assay with E. faecalis ATCC 29212; “+++ (+++ = MIC ≦ 4)” with S. pneumoniae ATCC 49619.
